Data on three molecules can be found in US20020161013A1, “Method of local anesthesia and analgesia” (priority 2001, published 2002).

Structures can show the parent of a compound that is named as a salt. Where two headings read alike, the source gives them in different places.

Data set [1] concerns rabbit eyes. On the set-up: species or system New Zealand white rabbits. The conditions noted are these: in vivo.
Data set [2] relates to rabbits. More on the design: species or system New Zealand white rabbits. Particulars: rabbit, in vivo.
For data set [3], the system named is rabbits. More on the design: species or system New Zealand white rabbits. Particulars: rabbit, in vivo. This is another data set of the same source.
For data set [4] the following is noted: cited from earlier work.
In data set [5] the test system is rabbit eyes. Particulars: in vivo.

Consider `NC1=N[C@H](O)[C@H]2[C@H]3O[C@]4(O)O[C@@H]([C@@H](O)[C@@]2(N1)[C@@H]4O)[C@]3(O)CO` [TTX, tetrodotoxin], for which, in the data set on rabbit eyes [1], the “local anesthesia by retrobulbar injection compared with lidocaine” value is “much more potent”, the local anesthesia effect result is “weak effect” and the “local anesthesia in the treated eyes” value is recorded as “showed local anesthesia in the treated eyes to various extents”. Moreover, in the data set with rabbits [2], the general examination findings entry is recorded as “No changes of food-taking pattern, movement, respiration or alertness”; the toxic signs observed result is “Signs of convulsion, rigidity and death”. In the data set with rabbits [3], the “abnormalities in other animals of the group” value was “No significant abnormalities”; the “adverse signs in the TTX-treated eye” value was “conjunctival congestion, hydrops (++) and lacrimation”; the local anesthesia entry was “local anesthesia to some extent”; the toxic signs observed result is “Signs of convulsion, rigidity and death”.
In the case of `CCCCN1CCCCC1C(=O)Nc1c(C)cccc1C` (stereo not shown) [bupivacaine], the “residual diplopia next morning” value in data set [4] (bupivacaine, ophthalmic applications) is on record as “up to 70 % of patients”. Moreover, the duration of action in data set [4] (bupivacaine, peripheral nerve block) was at most 24 h.
In the data set with rabbit eyes [1], `CCN(CC)CC(=O)Nc1c(C)cccc1C` [lidocaine, lidocaine hydrochloride, reference compound] showed a duration of action of 0.34 h and an onset of 1.94 min. Further, in data set [4] (in vivo), the duration of action entry is listed as “over 20 minutes” and the onset entry is “about 2 minutes”. For the same molecule, the “magnitude of ERG b wave versus controls” value with rabbit eyes [5] is “Neither were differences found”.
